# The supplement of paper PMC5752671
# How the values were obtained:
# Test in all cases: area under dose-response curve (cell viability) (AUC (arbitrary, % viability x log concentration)); higher = less sensitive (more viable)
# Details in all cases: 4 days
# [1] = test system: KG1
# Method in brief: (§1)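 Drugs were dispensed robotically, one day after plating, onto fourteen leukemia cell lines in 384-well plates coated with extracellular matrix. Each drug was tested in duplicate at eight concentrations spanning 4–5 logs inside 10^–12–10^–4 M, adjusted per drug, and CellTiter-Glo readout followed after 4 days. Duplicates were averaged and a four-parameter sigmoid was fitted. The area under that fitted curve is the reported value.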
# [2] = test system: SKM1
# Method in brief: as §1
# [3] = test system: PL-21
# Method in brief: as §1
# [4] = test system: MOLM/13
# Method in brief: as §1
# [5] = test system: MV4.11
# Method in brief: as §1
# [6] = test system: OCI-AML2
# Method in brief: as §1
# [7] = test system: MOLM/16
# Method in brief: as §1
# [8] = test system: U937
# Method in brief: as §1
# [9] = test system: THP-1
# Method in brief: as §1
# [10] = test system: HL60
# Method in brief: as §1
SMILES,area under dose-response curve [1],area under dose-response curve [2],area under dose-response curve [3],area under dose-response curve [4],area under dose-response curve [5],area under dose-response curve [6],area under dose-response curve [7],area under dose-response curve [8],area under dose-response curve [9],area under dose-response curve [10]
O=c1c(N=Nc2ccc(S(=O)(=O)O)cc2)c(-c2ccc([N+](=O)[O-])cc2)[nH]n1-c1ccccc1 [PHPS1],690,646,611,627,676,614,618,630,646,674
Oc1cccc(-c2nc(N3CCOCC3)c3oc4ncccc4c3n2)c1 [PI-103],525,463,305,496,482,477,285,412,478,453
Cc1ccc([N+](=O)[O-])cc1S(=O)(=O)N(C)/N=C/c1cnc2ccc(Br)cn12 [PIK-75],390,402,366,339,314,353,328,371,380,363
COc1ccc2c3n(c(=NC(=O)c4cccnc4)nc2c1OC)CCN3 [PIK-90],626,540,522,624,580,575,515,586,563,512
CO[C@@H]1[C@H](N(C)C(=O)c2ccccc2)C[C@H]2O[C@]1(C)n1c3ccccc3c3c4c(c5c6ccccc6n2c5c31)C(=O)NC4 [PKC412],455,555,524,310,279,441,425,454,633,643
CN(C)C1CCN(C(=O)c2ccc(NC(=O)Nc3ccc(-c4nc(N5CCOCC5)nc(N5CCOCC5)n4)cc3)cc2)CC1 [PKI-587],548,372,374,346,363,374,429,255,465,437
CCCS(=O)(=O)Nc1ccc(F)c(C(=O)c2c[nH]c3ncc(-c4ccc(Cl)cc4)cc23)c1F [PLX-4032],710,661,638,643,702,618,661,692,738,757
CCCS(=O)(=O)Nc1ccc(F)c(C(=O)c2c[nH]c3ncc(Cl)cc23)c1F [PLX-4720],713,597,616,660,714,608,606,638,730,769
CC(=O)O[C@H]1C(=O)[C@@]2(C)[C@H]([C@H](OC(=O)c3ccccc3)[C@]3(O)C[C@H](OC(=O)[C@H](O)[C@@H](NC(=O)c4ccccc4)c4ccccc4)C(C)=C1C3(C)C)[C@]1(OC(C)=O)CO[C@@H]1C[C@@H]2O [Paclitaxel],154,99.8,5.02,2.2,8.21,3.76,18.5,6.61,20.5,56.2
Cc1[nH]c2ccccc2c1CCNCc1ccc(/C=C/C(=O)NO)cc1 [Panobinostat],323,318,319,283,259,251,242,289,336,307
Cc1ccc(Nc2nccc(N(C)c3ccc4c(C)n(C)nc4c3)n2)cc1S(N)(=O)=O [Pazopanib],619,642,562,555,559,537,644,581,645,608
Nc1nc2[nH]cc(CCc3ccc(C(=O)N[C@@H](CCC(=O)O)C(=O)O)cc3)c2c(=O)[nH]1 [Pemetrexed],657,654,618,647,640,628,624,628,632,643
OC[C@H]1O[C@@H](n2cnc3c2N=CNC[C@H]3O)C[C@@H]1O [Pentostatin],669,637,616,627,647,629,627,651,632,652
CC[C@H](C)C(=O)O[C@H]1C[C@H](O)C=C2C=C[C@H](C)[C@H](CC[C@@H](O)C[C@@H](O)CC(=O)O)[C@H]21 [Pravastatin],657,647,638,656,699,659,619,668,693,668
CC[C@H](CO)Nc1nc(NCc2ccccc2)c2ncn(C(C)C)c2n1 [R-roscovitine],711,644,623,637,697,649,608,658,668,640
COc1cc(F)c(F)c(Nc2ccc(I)cc2F)c1NS(=O)(=O)C1(C[C@H](O)CO)CC1 [RDEA-119],486,338,410,544,489,291,432,560,500,361
